# Like-named read-outs stand apart in the source and are kept apart here.
# Legend:
# [1] = tested on: alfalfa seeds; assay: Pre-sowing seed treatment, sowing qualities of alfalfa seeds; type: in vivo; conditions: for germination energy / laboratory germination: control 76
# Description: (§1) When evaluating the effectiveness of treatment of wheat, alfalfa, barley, rice, and sorghum seeds as fungicidal and bactericidal agents with preparation compounds at concentrations of 10, 20, and 40 mmol, their effect on the suppression of seed infection was evaluated.
# (§2) […] The sowing qualities were evaluated (germination energy for 3–4 days, laboratory germination for 7–8 days) according to GOST 12038-84 [60]. Sowing qualities of seeds were determined in wet chambers. According to the sample, 50 seeds were taken in 4-fold repetition.
# [2] = tested on: barley seeds; assay: Pre-sowing seed treatment, sowing qualities of barley seeds; type: in vivo; conditions: for germination energy / laboratory germination: control 95.2
# Description: as §1, §2
# [3] = tested on: rice seeds; assay: Pre-sowing seed treatment, sowing qualities of rice seeds; type: in vivo; conditions: for germination energy: control 71.4; for laboratory germination: control 95.2
# Description: as §1, §2
# [4] = tested on: SH-SY5Y (neuroblastoma); assay: Cell viability, MTT test; type: cell-based, Human; conditions: for IC50: Homo sapiens, SH-SY5Y, read-out: IC50 (concentration causing 50% inhibition of cell population growth)
# Description: (§3) In this work, the cytotoxic potential of the water-soluble salts based on benzofuroxan was determined by the effect of compounds on the survival of the cell tumor origin cultures (SH-SY5Y, Hep2, A549, HeLa) using the MTT test. To understand how the synthesized compounds can influence the healthy microenvironment in the body, the effect of substances on the viability of a normal Hek 293 cell culture was additionally evaluated.
# (§4) Human cell cultures of tumor origin—SH-SY5Y (neuroblastoma), HeLa (cervical tumor), Hep-2 (larynx carcinoma), A549 (adenocarcinomic human alveolar basal epithelial cells)—and normal cell line Hek 293 (human embryonic kidneys), provided by the Laboratory of Tumor Cell Genetics of the Scientific Research Institute of Carcinogenesis, N.N. Blokhin National Medical Research Center of Oncology, as well as the Institute of Cytology of the Russian Academy of Sciences, were grown in a nutrient medium DMEM (PanEco, Moscow, Russia) and MEM (PanEco, Moscow, Russia), containing fetal bovine serum (10% by volume) (ThermoFisher Scientific, Paisley, UK), Glutamax (2 mM) (Gibco, Scotland, UK), and penicillin-streptomycin (1% by volume) (PanEco, Moscow, Russia). The cultivation was carried out at 37 °C in a humidified CO2 atmosphere (5%).
# (§5) Cell viability was determined by MTT test. Cells were seeded in a 96-well plate in the amount of 1 × 10^4 cells/200µLof complete nutrient medium and cultured at 37 °C in CO2 (5%). After 24 h of incubation, various concentrations of test compounds in the range from 0.1 to 100 μM, were added to the cell cultures, and then the cells were cultured under the same conditions for 24 and 72 h. For each concentration, the experiment was carried out in triplicate.
# (§6) All compounds were dissolved in DMSO, then diluted with the medium to the required concentration. […] The DMSO was also added to the control wells in a volume of 1%. After the incubation time, MTT (3-(4,5-dimethylthiazol-2-yl)-2,5-diphenyltetrazolium bromide, 5 mg/mL) was added to each well and plates were additionally incubated for 2 h (until the characteristic color appeared).
# (§7) Using a plate analyzer (Cytation3, BioTech Instruments Inc., Winooski, VT, USA), the optical density was determined at 530 nm. The concentration value causing 50% inhibition of cell population growth (IC50) was determined from dose-dependent curves.
# [5] = tested on: A549 (adenocarcinomic human alveolar basal epithelial cells); assay: Cell viability, MTT test; type: cell-based; conditions: read-out: IC50 (concentration causing 50% inhibition of cell population growth)
# Description: as §3, §4, §5, §6, §7
# [6] = tested on: HeLa (cervical tumor); assay: Cell viability, MTT test; type: cell-based; conditions: Homo sapiens, read-out: IC50 (concentration causing 50% inhibition of cell population growth)
# Description: as §3, §4, §5, §6, §7
# [7] = tested on: Hep-2 (larynx carcinoma); assay: Cell viability, MTT test; type: cell-based; conditions: Homo sapiens, read-out: IC50 (concentration causing 50% inhibition of cell population growth)
# Description: as §3, §4, §5, §6, §7
# [8] = tested on: glycolysis in SH-SY5Y cells; assay: Glycolysis stress test (ECAR, Seahorse XF96e); type: cell-based, Human; conditions: 100 µM
# Description: Using the cell metabolism analyzer Agilent Seahorse XF96e Analyzer (Seahorse Bioscience, North Billerica, MA, USA), the rate of extracellular acidification of the medium (ECAR) in cells of tumor origin SH-SY5Y was evaluated as a glycolysis measure.
# The ability of compounds to suppress anaerobic glycolysis was studied using the Agilent Seahorse XF96e Analyzer (Seahorse Bioscience, North Billerica, MA, USA) by the level of hydrogen proton production in the studied samples on cell lines of neuroblastoma SH-SY5Y using a glycolysis stress test [62]. The rate of extracellular acidification of the medium was measured in real time, which made it possible to assess the intensity of glycolysis in cells by fixing the three main parameters of the glycolytic function: basal glycolysis, glycolytic capacity, and glycolytic reserve.
# SH-SY5Y cells in the exponential growth phase were seeded in a 96-well Seahorse cell culture microplate. The planting density of the cell culture was 2 × 10^4/well. […]
# The test compounds were added from port A at a concentration of 100 μM. To determine the effect of test compounds on basal glycolysis of neoplastic cells, 10 mM glucose was added from port B. The maximum glycolytic capacity was assessed by injecting oligomycin at a concentration of 1 μM from port C. […]
# [9] = Acute toxicity, single intraperitoneal administration; type: in vivo; conditions: male, BDF1 [DBA2 × C57Bl6] hybrid, mouse, in vivo, ip, BDF1 mice, single intraperitoneal administration; for MTD at 14 days: doses given in mg/kg; for LD50 at 14 days: probit analysis
# Description: To determine LD50, a curve of increasing toxicity was built with increasing dose, based on which the following parameters were additionally determined: MTD, LD16, LD84 and LD100.
# In the experiment, clinically healthy animals were used, which were kept in the same conditions with a 12-h light and free access to water and food. Each experimental group included six animals. […] Control animals received 0.9% NaCl solution. Animals were monitored continuously for 4 h on the first day after administration of the test compounds. […] Calculation of toxic doses was performed using probit analysis.
# [10] = tested on: murine leukemia P388 in BDF1 mice; assay: Antitumor activity in vivo, transplanted murine leukemia P388; conditions: for increase in the average lifespan (ILS): single i.p. injection; for lifespan of animals: single i.p., doses from 1/8 MPD to MPD, control animals all die by day 11
# Description: The study of the antitumor activity of compounds 4e and 4g was carried out using transplanted experimental murine tumor leukemia P388. In the experiment, concentrations from 1.25 to 10 mg/kg were used for 4e, and from 0.625 to 5 mg/kg for 4g. The concentrations used correspond to values from 1/8 MPD to MPD for the studied compounds.
# Studies of antitumor activity were carried out on hybrid male mice BDF1 [DBA2×C57Bl6] weighing from 22 to 24 g. In the experiment, clinically healthy animals were used, which were kept in the same conditions with a 12-h light and free access to water and food. Each experimental group included six animals. Transplantation of mouse leukemia P388 was performed intraperitoneally with a concentration of 10^6 cells in 200μLof 0.9% NaCl solution per animal. Compounds 4e and 4g were dissolved in 0.9% NaCl solution and administered intraperitoneally once in the dose range 1.25–10 mg/kg and 0.625–5 mg/kg, respectively. The compounds were administered the next day after tumor cell transplantation. Control animals received 0.9% NaCl solution. The effectiveness of therapy was assessed by the increase in the average life span (ILS, %) of the animals.
Structure (SMILES),germination energy ([1]; 10 mmol),laboratory germination ([1]; 10 mmol),germination energy ([1]; 20 mmol),laboratory germination ([1]; 20 mmol),germination energy ([1]; 40 mmol),laboratory germination ([1]; 40 mmol),germination energy ([2]; 10 mmol),laboratory germination ([2]; 10 mmol),sowing qualities of seeds compared with control ([2]; 20 mmol),germination energy ([2]; 20 mmol),laboratory germination ([2]; 20 mmol),germination energy ([2]; 40 mmol),laboratory germination ([2]; 40 mmol),germination energy ([3]; 10 mmol),laboratory germination ([3]; 10 mmol),germination energy ([3]; 20 mmol),laboratory germination ([3]; 20 mmol),sowing qualities of seeds compared with control ([3]; 40 mmol),germination energy ([3]; 40 mmol),laboratory germination ([3]; 40 mmol),further results
"O=[N+]([O-])c1c(Cl)cc2c(no[n+]2[O-])c1NCCCN1CCOCC1 [4e, 6-chloro-4-(3-(morpholino-4-ium)propylamino)-5-nitrobenzo[c][1,2,5]oxadiazole 1-oxide chloride]",46.6%,46.6%,78.5%,79.5%,73%,74%,85.7%,85.7%,higher than control,96%,98%,94%,99%,38%,38%,98.5%,99%,better results than the control,99%,99%,"sowing qualities of seeds compared with control ([3]; 20 mmol): better results than the control; IC50 ([4]; 24 h): 24.1 ± 1.22 µM; IC50 ([4]; 72 h): 20.2 ± 0.72 µM; selectivity index ([4]; IC50 on neuroblastoma SH-SY5Y with respect to Hek 293, 24 h): more than 4; IC50 ([5]; A549, 24 h): 90.2 ± 3.43 µM; IC50 ([5]; A549, 72 h): 77.1 ± 1.36 µM; IC50 ([6]; 24 h): > 100 µM; IC50 ([6]; 72 h): 93.8 ± 2.53 µM; IC50 ([7]; HEp-2, 24 h): 83 ± 1.37 µM; IC50 ([7]; HEp-2, 72 h): 70.21 ± 0.54 µM; suppression of glycolytic function parameters ([8]; compared with control samples): 60%; MTD at 14 days [9]: 10 mg/kg; LD50 at 14 days [9]: 22 ± 1.33 mg/kg; increase in the average lifespan (ILS) ([10]; 2.5 mg/kg): 28%; lifespan of animals [10]: up to 16 days"
"CN(C)CCCNc1c([N+](=O)[O-])c(Cl)cc2c1no[n+]2[O-].Cl [4g, 6-chloro-4-(3-(dimethylammonio)propylamino)-5-nitrobenzo[c][1,2,5]oxadiazole 1-oxide chloride]",56.6%,60%,43.3%,63.3%,80%,80%,52.3%,52.3%,higher than control,100%,100%,100%,100%,38%,47.6%,71.4%,100%,at the control level,76.1%,95.2%,"sowing qualities of seeds compared with control ([1]; 40 mmol): higher than controls; sowing qualities of seeds compared with control ([2]; 40 mmol): higher than control; IC50 ([4]; 24 h): 20.9 ± 0.82 µM; IC50 ([4]; 72 h): 17.07 ± 0.03 µM; IC50 ([5]; A549, 24 h): 82 ± 1.54 µM; IC50 ([5]; A549, 72 h): 64.2 ± 2.12 µM; IC50 ([6]; 24 h): 97.8 ± 3.31 µM; IC50 ([6]; 72 h): 83.1 ± 4.29 µM; IC50 ([7]; HEp-2, 24 h): 70.3 ± 1.28 µM; IC50 ([7]; HEp-2, 72 h): 58 ± 2.9 µM; glycolytic parameters (basal glycolysis, glycolytic capacity, glycolytic reserve) ([8]; ECAR): reaching a minimum; MTD at 14 days [9]: 5 mg/kg; LD50 at 14 days [9]: 13.8 ± 1.73 mg/kg; increase in the average lifespan (ILS) ([10]; 5 mg/kg): 25%; lifespan of animals [10]: up to 16 days"
